Reference: patent US20240208992A1, “MACROCYCLES AS CFTR MODULATORS” (Idorsia Pharmaceuticals Ltd, priority 2021, published 2024)

Biological target: human F508del-CFTR (Homo sapiens, UniProt P13569, DEL508-508)
Assay: F508del-CFTR cell surface expression (corrector activity), DiscoveRx ß-galactosidase complementation chemiluminescence assay in recombinant U2OS cell line;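 note: U2OS cells co-expressing ProLink-tagged F508del-CFTR and a membrane-anchored enzyme acceptor, where more surface CFTR restores β-galactosidase activity measured by chemiluminescence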
Conditions: U2OS cell line, 16h compound incubation; for EC50: EC50, F508del-CFTR cell surface expression, geomean values; for Emax: U2OS, in relation to the Emax of the corrector lumacaftor (=100%), arithmetic mean values

human F508del-CFTR, sequence (P13569 with tags, fused parts or gaps DEL508-508): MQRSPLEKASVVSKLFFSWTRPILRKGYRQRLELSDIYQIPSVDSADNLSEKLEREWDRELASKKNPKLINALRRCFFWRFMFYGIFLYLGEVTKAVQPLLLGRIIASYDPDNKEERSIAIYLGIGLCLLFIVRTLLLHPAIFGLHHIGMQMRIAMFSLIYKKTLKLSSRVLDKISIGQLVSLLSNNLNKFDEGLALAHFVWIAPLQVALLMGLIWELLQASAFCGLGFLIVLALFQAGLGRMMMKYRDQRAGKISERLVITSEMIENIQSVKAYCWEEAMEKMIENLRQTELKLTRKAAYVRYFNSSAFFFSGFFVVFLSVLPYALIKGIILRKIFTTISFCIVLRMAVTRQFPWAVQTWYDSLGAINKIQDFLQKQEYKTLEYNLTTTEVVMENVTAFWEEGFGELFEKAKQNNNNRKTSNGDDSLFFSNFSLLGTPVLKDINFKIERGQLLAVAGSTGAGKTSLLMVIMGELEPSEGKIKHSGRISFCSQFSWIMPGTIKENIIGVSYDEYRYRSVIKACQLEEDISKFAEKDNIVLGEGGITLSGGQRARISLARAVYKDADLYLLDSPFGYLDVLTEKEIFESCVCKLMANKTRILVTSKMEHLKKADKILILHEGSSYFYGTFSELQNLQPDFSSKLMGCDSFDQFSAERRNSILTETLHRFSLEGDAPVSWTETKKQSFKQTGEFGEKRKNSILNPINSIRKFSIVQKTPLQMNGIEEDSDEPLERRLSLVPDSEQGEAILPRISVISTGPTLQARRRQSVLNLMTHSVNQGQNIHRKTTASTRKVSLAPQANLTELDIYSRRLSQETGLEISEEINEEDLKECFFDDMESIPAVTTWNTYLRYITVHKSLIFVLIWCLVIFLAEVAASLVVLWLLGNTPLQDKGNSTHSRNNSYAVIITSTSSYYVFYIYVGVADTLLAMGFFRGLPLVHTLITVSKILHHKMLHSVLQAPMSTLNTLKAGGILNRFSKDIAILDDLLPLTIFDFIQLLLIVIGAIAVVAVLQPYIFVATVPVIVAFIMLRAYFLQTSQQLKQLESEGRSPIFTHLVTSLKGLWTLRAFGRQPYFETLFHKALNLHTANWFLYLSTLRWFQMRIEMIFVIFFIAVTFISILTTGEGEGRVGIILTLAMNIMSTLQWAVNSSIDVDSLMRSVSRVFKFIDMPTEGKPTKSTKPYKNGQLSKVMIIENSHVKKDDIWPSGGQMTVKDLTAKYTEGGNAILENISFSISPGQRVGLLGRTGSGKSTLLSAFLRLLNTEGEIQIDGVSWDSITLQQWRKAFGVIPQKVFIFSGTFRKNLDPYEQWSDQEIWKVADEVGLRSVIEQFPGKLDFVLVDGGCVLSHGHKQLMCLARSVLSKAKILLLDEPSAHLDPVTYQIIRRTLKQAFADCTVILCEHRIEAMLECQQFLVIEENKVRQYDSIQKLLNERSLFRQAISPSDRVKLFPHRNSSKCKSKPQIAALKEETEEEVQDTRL

EC50 [nM] | Emax [%] | Compound
313 | 331 | Cc1cc(CCNC(=O)[C@@H]2CC(=O)N(C)[C@@H](CC(C)C)C(=O)N(C)C3(CC3)C(=O)N[C@H](Cc3ccccc3)COc3cnc4ccc(F)cc4c3C(=O)N2)no1 [Example 141, (3′S,7′S,13′R)-13′-benzyl-20′-fluoro-7′-isobutyl-6′,9′-dimethyl-N-(2-(5-methylisoxazol-3-yl)ethyl)-1′,5′,8′,11′-tetraoxo-2′,3′,4′,5′,6′,7′,8′,9′,11′,12′,13′,14′-dodecahydro-1′H-spiro[cyclopropane-1,10′-[1]oxa[4,7,10,14]tetraazacycloheptadecino[17,16-c]quinoline]-3′-carboxamide]
194 | 381 | CC(C)C[C@H]1C(=O)N(C)C2(CC2)C(=O)N[C@H](Cc2ccccc2)COc2cnc3ccc(F)cc3c2C(=O)N[C@H](C(=O)NCCc2cc(C3CC3)on2)CC(=O)N1C [Example 142, (3′S,7′S,13′R)-13′-benzyl-N-(2-(5-cyclopropylisoxazol-3-yl)ethyl)-20′-fluoro-7′-isobutyl-6′,9′-dimethyl-1′,5′,8′,11′-tetraoxo-2′,3′,4′,5′,6′,7′,8′,9′,11′,12′,13′,14′-dodecahydro-1′H-spiro[cyclopropane-1,10′-[1]oxa[4,7,10,14]tetraazacycloheptadecino[17,16-c]quinoline]-3′-carboxamide]
922 | 320 | CC(C)C[C@H]1C(=O)N(C)C2(CC2)C(=O)N[C@H](Cc2ccccc2)COc2cnc3ccc(F)cc3c2C(=O)N[C@H](C(=O)NCCc2cnn(C)c2)CC(=O)N1C [Example 143, (3′S,7′S,13′R)-13′-benzyl-20′-fluoro-7′-isobutyl-6′,9′-dimethyl-N-(2-(1-methyl-1H-pyrazol-4-yl)ethyl)-1′,5′,8′,11′-tetraoxo-2′,3′,4′,5′,6′,7′,8′,9′,11′,12′,13′,14′-dodecahydro-1′H-spiro[cyclopropane-1,10′-[1]oxa[4,7,10,14]tetraazacycloheptadecino[17,16-c]quinoline]-3′-carboxamide]
270 | 339 | Cc1cc(CCNC(=O)[C@@H]2CC(=O)N(C)[C@@H](CC(C)C)C(=O)N(C)C3(CC3)C(=O)N[C@H](Cc3ccccc3)COc3cnc4ccc(F)cc4c3C(=O)N2)on1 [Example 147, (3′S,7′S,13′R)-13′-benzyl-20′-fluoro-7′-isobutyl-6′,9′-dimethyl-N-(2-(3-methylisoxazol-5-yl)ethyl)-1′,5′,8′,11′-tetraoxo-2′,3′,4′,5′,6′,7′,8′,9′,11′,12′,13′,14′-dodecahydro-1′H-spiro[cyclopropane-1,10′-[1]oxa[4,7,10,14]tetraazacycloheptadecino[17,16-c]quinoline]-3′-carboxamide]
811 | 198 | COc1cc2c(cc1OC)C(=O)N[C@H](C(=O)NCCc1ccc3c(c1)OCCC3)CC(=O)N(C)[C@@H](CC(C)C)C(=O)N(C)CC(=O)N[C@H](Cc1ccccc1)CO2 [Example 148, (3R,9S,13S)-3-benzyl-N-(2-(chroman-7-yl)ethyl)-9-isobutyl-17,18-dimethoxy-7,10-dimethyl-5,8,11,15-tetraoxo-2,3,4,5,6,7,8,9,10,11,12,13,14,15-tetradecahydrobenzo[p][1]oxa[4,7,10,14]tetraazacycloheptadecine-13-carboxamide]
151 | 130 | COc1cccc2c1C(=O)N[C@H](C(=O)NCCc1cccc(OC(F)F)c1)CC(=O)N(C)[C@@H](CC(C)C)C(=O)N(CCC1CCCCC1)CC(=O)N[C@H](Cc1ccccc1)CO2 [Example 150, (3R,9S,13S)-3-benzyl-7-(2-cyclohexylethyl)-N-(3-(difluoromethoxy)phenethyl)-9-isobutyl-16-methoxy-10-methyl-5,8,11,15-tetraoxo-2,3,4,5,6,7,8,9,10,11,12,13,14,15-tetradecahydrobenzo[p][1]oxa[4,7,10,14]tetraazacycloheptadecine-13-carboxamide]

The next lines start with the molecule.

Compound | EC50 [nM] | Emax [%]
CC(C)C[C@H]1C(=O)N(C)C2(CC2)C(=O)N[C@H](Cc2ccccc2)COc2cnc3ccc(F)cc3c2C(=O)N[C@H](C(=O)NCCc2cccc(-c3ncccn3)c2)CC(=O)N1C [Example 138, (3′S,7′S,13′R)-13′-benzyl-20′-fluoro-7′-isobutyl-6′,9′-dimethyl-1′,5′,8′,11′-tetraoxo-N-(3-(pyrimidin-2-yl)phenethyl)-2′,3′,4′,5′,6′,7′,8′,9′,11′,12′,13′,14′-dodecahydro-1′H-spiro[cyclopropane-1,10′-[1]oxa[4,7,10,14]tetraazacycloheptadecino[17,16-c]quinoline]-3′-carboxamide] | 538 | 292
CC(C)C[C@H]1C(=O)N(C)C2(CC2)C(=O)N[C@H](Cc2ccccc2)COc2cnc3ccc(F)cc3c2C(=O)N[C@H](C(=O)NCCc2cnn(C3CC3)c2)CC(=O)N1C [Example 139, (3′S,7′S,13′R)-13′-benzyl-N-(2-(1-cyclopropyl-1H-pyrazol-4-yl)ethyl)-20′-fluoro-7′-isobutyl-6′,9′-dimethyl-1′,5′,8′,11′-tetraoxo-2′,3′,4′,5′,6′,7′,8′,9′,11′,12′,13′,14′-dodecahydro-1′H-spiro[cyclopropane-1,10′-[1]oxa[4,7,10,14]tetraazacycloheptadecino[17,16-c]quinoline]-3′-carboxamide] | 463 | 381
CC(C)C[C@H]1C(=O)N(C)C2(CC2)C(=O)N[C@H](Cc2ccccc2)COc2cnc3ccc(F)cc3c2C(=O)N[C@H](C(=O)NCCc2nc(C3CC3)no2)CC(=O)N1C [Example 140, (3′S,7′S,13′R)-13′-benzyl-N-(2-(3-cyclopropyl-1,2,4-oxadiazol-5-yl)ethyl)-20′-fluoro-7′-isobutyl-6′,9′-dimethyl-1′,5′,8′,11′-tetraoxo-2′,3′,4′,5′,6′,7′,8′,9′,11′,12′,13′,14′-dodecahydro-1′H-spiro[cyclopropane-1,10′-[1]oxa[4,7,10,14]tetraazacycloheptadecino[17,16-c]quinoline]-3′-carboxamide] | 142 | 318
CC(C)C[C@H]1C(=O)N(C)C2(CC2)C(=O)N[C@H](Cc2ccccc2)COc2cnc3ccc(F)cc3c2C(=O)N[C@H](C(=O)NCCc2noc(C3CC3)n2)CC(=O)N1C [Example 144, (3′S,7′S,13′R)-13′-benzyl-N-(2-(5-cyclopropyl-1,2,4-oxadiazol-3-yl)ethyl)-20′-fluoro-7′-isobutyl-6′,9′-dimethyl-1′,5′,8′,11′-tetraoxo-2′,3′,4′,5′,6′,7′,8′,9′,11′,12′,13′,14′-dodecahydro-1′H-spiro[cyclopropane-1,10′-[1]oxa[4,7,10,14]tetraazacycloheptadecino[17,16-c]quinoline]-3′-carboxamide] | 211 | 327
CC(C)C[C@H]1C(=O)N(C)C2(CC2)C(=O)N[C@H](Cc2ccccc2)COc2cnc3ccccc3c2C(=O)N[C@H](C(=O)NCC(F)(F)c2ccccc2)CC(=O)N1C [Example 145, (3′S,7′S,13′R)-13′-benzyl-N-(2,2-difluoro-2-phenylethyl)-7′-isobutyl-6′,9′-dimethyl-1′,5′,8′,11′-tetraoxo-2′,3′,4′,5′,6′,7′,8′,9′,11′,12′,13′,14′-dodecahydro-1′H-spiro[cyclopropane-1,10′-[1]oxa[4,7,10,14]tetraazacycloheptadecino[17,16-c]quinoline]-3′-carboxamide] | 309 | 107
Cc1noc(CCNC(=O)[C@@H]2CC(=O)N(C)[C@@H](CC(C)C)C(=O)N(C)C3(CC3)C(=O)N[C@H](Cc3ccccc3)COc3cnc4ccc(F)cc4c3C(=O)N2)n1 [Example 146, (3′S,7′S,13′R)-13′-benzyl-20′-fluoro-7′-isobutyl-6′,9′-dimethyl-N-(2-(3-methyl-1,2,4-oxadiazol-5-yl)ethyl)-1′,5′,8′,11′-tetraoxo-2′,3′,4′,5′,6′,7′,8′,9′,11′,12′,13′,14′-dodecahydro-1′H-spiro[cyclopropane-1,10′-[1]oxa[4,7,10,14]tetraazacycloheptadecino[17,16-c]quinoline]-3′-carboxamide] | 247 | 318
COc1cccc2c1C(=O)N[C@H](C(=O)NCCc1ccc3c(c1)OCCO3)CC(=O)N(C)[C@@H](CC(C)C)C(=O)N(CCC1CCCCC1)CC(=O)N[C@H](Cc1ccccc1)CO2 [Example 149, (3R,9S,13S)-3-benzyl-7-(2-cyclohexylethyl)-N-(2-(2,3-dihydrobenzo[b][1,4]dioxin-6-yl)ethyl)-9-isobutyl-16-methoxy-10-methyl-5,8,11,15-tetraoxo-2,3,4,5,6,7,8,9,10,11,12,13,14,15-tetradecahydrobenzo[p][1]oxa[4,7,10,14]tetraazacycloheptadecine-13-carboxamide] | 191 | 259
COc1ccc(CCNC(=O)[C@@H]2CC(=O)N(C)[C@@H](CC(C)C)C(=O)N(C)CC(=O)N[C@H](Cc3ccccc3)COc3cc4c(cc3C(=O)N2)OCO4)cc1 [Example 153, (7R,13S,17S)-7-benzyl-13-isobutyl-N-(4-methoxyphenethyl)-11,14-dimethyl-9,12,15,19-tetraoxo-6,7,8,9,10,11,12,13,14,15,16,17,18,19-tetradecahydro-[1,3]dioxolo[4′,5′:4,5]benzo[1,2-p][1]oxa[4,7,10,14]tetraazacycloheptadecine-17-carboxamide] | 460 | 115
CC(C)C[C@H]1C(=O)N(CCC2CCOCC2)CC(=O)N[C@H](Cc2ccccc2)COc2cc3c(cc2C(=O)N[C@H](C(=O)NCCc2ccc4c(c2)OCO4)CC(=O)N1C)OCO3 [Example 154, (7R,13S,17S)-N-(2-(benzo[d][1,3]dioxol-5-yl)ethyl)-7-benzyl-13-isobutyl-14-methyl-9,12,15,19-tetraoxo-11-(2-(tetrahydro-2H-pyran-4-yl)ethyl)-6,7,8,9,10,11,12,13,14,15,16,17,18,19-tetradecahydro-[1,3]dioxolo[4′,5′:4,5]benzo[1,2-p][1]oxa[4,7,10,14]tetraazacycloheptadecine-17-carboxamide] | 398 | 102
